Active and inactive are the calls of the source. The rule behind the calls is not given here.
Columns and labels:
[1] = molecular target: T1, Androgen receptor (Homo sapiens, UniProt P10275); assay: Antagonist activity at androgen receptor (unknown origin) in human LNCap-ARR2PB-eGFP cells by measuring fluorescence intensity measured after 3 days by transcriptional assay; format: cell-based
T1 sequence (P10275 whole entry): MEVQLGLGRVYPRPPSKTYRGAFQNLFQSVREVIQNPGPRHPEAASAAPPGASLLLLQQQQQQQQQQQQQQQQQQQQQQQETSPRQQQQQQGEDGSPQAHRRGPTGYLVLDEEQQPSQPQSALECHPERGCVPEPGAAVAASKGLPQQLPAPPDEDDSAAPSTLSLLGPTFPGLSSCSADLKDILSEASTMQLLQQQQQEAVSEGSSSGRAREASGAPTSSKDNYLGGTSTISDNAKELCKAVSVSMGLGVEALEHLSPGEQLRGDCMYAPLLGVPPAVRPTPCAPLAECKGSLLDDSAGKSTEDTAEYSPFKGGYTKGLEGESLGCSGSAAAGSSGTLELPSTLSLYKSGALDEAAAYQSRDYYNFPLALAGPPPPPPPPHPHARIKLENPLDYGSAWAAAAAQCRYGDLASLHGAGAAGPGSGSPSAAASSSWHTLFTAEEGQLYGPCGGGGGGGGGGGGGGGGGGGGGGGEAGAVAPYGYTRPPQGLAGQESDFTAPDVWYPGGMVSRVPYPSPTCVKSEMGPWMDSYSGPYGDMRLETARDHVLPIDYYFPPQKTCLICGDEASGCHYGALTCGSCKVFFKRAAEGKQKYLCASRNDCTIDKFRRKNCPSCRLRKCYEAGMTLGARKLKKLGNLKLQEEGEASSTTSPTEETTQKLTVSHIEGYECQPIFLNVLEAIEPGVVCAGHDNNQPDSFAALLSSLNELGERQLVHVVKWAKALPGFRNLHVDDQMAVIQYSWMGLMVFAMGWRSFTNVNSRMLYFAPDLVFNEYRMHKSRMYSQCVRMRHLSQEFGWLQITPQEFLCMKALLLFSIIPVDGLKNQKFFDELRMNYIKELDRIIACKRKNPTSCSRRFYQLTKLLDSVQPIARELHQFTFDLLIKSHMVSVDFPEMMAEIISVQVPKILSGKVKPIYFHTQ

[2] = Cytotoxicity against human Chang liver cells assessed as inhibition of cell proliferation by MTT assay; format: toxicity, cell-based
[3] = Antagonist activity at mineralocorticoid receptor (unknown origin) transfected in PC-3 cells assessed as inhibition of […]-stimulated transcriptional activity after 3 days by dual luciferase reporter assay; format: cell-based; conditions: Homo sapiens, PC-3, 72 h
[4] = tested on: LNCaP; assay: Cytotoxicity against human LNCAP cells assessed as inhibition of cell proliferation by MTT assay; format: functional, cell-based
[5] = Inhibition of PSA secretion in human LNCaP ARR2PB-eGFP cells measured after 3 days by immuno assay; format: functional, cell-based; conditions: 72 h
[6] = Cytotoxicity against human GES1 cells assessed as inhibition of cell proliferation by MTT assay; format: toxicity, cell-based
[7] = molecular target: T2, Androgen receptor (Homo sapiens, UniProt P10275, F877L/T878A); assay: Antagonist activity at androgen receptor F876L/T877A mutant in human PC-3 cells assessed as inhibition of transcriptional activity measured after 24 hrs by luminescence based microplate reader assay; format: cell-based
[8] = molecular target: T3, Androgen receptor (Homo sapiens) (UniProt P10275); assay: Antagonist activity at human AR AF2 assessed as inhibition of fluorescent-labelled D11-FxxLF peptide Co-activator to receptor by TR-FRET assay; conditions: filed as antagonist
T3 sequence (whole entry): T1 sequence (P10275 whole entry)

[9] = molecular target: T4, Androgen receptor (Homo sapiens, UniProt P10275, F877L); assay: Antagonist activity at androgen receptor F877L mutant (unknown origin) expressed in PC-3 cells assessed as inhibition of transcriptional activity measured after 24 hrs by dual luciferase assay; format: cell-based
[10] = molecular target: T4, Androgen receptor; assay: Antagonist activity at androgen receptor F877L mutant in human PC-3 cells assessed as inhibition of transcriptional activity measured after 24 hrs by luminescence based microplate reader assay; format: cell-based
[11] = molecular target: T1, Androgen receptor
[12] = Antagonist activity at androgen receptor T878G mutant (unknown origin) expressed in PC-3 cells assessed as inhibition of transcriptional activity measured after 24 hrs by dual luciferase assay; format: cell-based; conditions: Homo sapiens, PC-3, 24 h
[13] = molecular target: T2, Androgen receptor; assay: Antagonist activity at androgen receptor F877L/T877A dual mutant (unknown origin) expressed in PC-3 cells assessed as inhibition of transcriptional activity measured after 24 hrs by dual luciferase assay; format: cell-based

T4 sequence (P10275 whole entry F877L): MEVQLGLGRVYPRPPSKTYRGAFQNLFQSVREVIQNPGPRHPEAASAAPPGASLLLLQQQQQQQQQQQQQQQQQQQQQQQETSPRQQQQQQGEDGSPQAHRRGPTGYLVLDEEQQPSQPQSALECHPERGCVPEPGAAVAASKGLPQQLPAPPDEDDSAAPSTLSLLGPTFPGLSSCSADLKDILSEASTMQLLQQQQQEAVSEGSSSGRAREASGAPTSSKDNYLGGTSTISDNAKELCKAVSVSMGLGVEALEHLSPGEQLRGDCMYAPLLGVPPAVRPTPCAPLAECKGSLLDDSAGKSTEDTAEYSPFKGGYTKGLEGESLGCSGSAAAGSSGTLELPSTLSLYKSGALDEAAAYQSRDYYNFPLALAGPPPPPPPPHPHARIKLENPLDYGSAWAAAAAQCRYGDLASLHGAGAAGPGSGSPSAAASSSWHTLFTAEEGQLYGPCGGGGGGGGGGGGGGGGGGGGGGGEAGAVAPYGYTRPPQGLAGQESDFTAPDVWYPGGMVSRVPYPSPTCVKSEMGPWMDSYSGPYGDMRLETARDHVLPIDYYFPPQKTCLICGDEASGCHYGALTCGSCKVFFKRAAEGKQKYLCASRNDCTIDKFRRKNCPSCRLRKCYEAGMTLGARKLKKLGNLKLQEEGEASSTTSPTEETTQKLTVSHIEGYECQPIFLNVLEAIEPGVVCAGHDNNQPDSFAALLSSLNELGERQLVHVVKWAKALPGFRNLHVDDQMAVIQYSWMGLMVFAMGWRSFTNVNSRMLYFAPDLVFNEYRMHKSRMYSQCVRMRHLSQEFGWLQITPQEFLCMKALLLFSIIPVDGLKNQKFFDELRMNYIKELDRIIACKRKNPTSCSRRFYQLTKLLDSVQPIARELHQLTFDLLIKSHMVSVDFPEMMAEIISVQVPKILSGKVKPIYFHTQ
T2 sequence (P10275 whole entry F877L/T878A): as the sequence (P10275 whole entry F877L) above, with T878A counted along it

| SMILES | IC50 [1] [µM] | further results |
| --- | --- | --- |
| N#Cc1cc(NC(=O)Cc2ccn(-c3ccc(C#N)c(C(F)(F)F)c3)n2)ccc1F | 6.34 |  |
| N#Cc1ccc(-n2ccc(CC(=O)Nc3ccc(F)c(F)c3)n2)cc1C(F)(F)F | 0.21 |  |
| N#Cc1ccc(-n2ccc(CNC(=O)c3ccc(C(F)(F)F)cc3)n2)cc1C(F)(F)F | > 25 |  |
| N#Cc1ccc(-n2cc(C(F)(F)F)c(CNC(=O)c3ccc(F)cc3)n2)cc1C(F)(F)F | 16.2 |  |
| N#Cc1ccc(-n2ccc(CC(=O)Nc3ccc(F)cc3)n2)cc1Cl | 0.22 |  |
| N#Cc1ccc(-n2ccc(CNC(=O)c3ccc(F)cc3)n2)cc1C(F)(F)F | 0.76 |  |
| CNC(=O)c1ccc(C(=O)NCc2ccn(-c3ccc(C#N)c(C(F)(F)F)c3)n2)cc1F | > 25 |  |
| N#Cc1ccc(C(=O)NCc2ccn(-c3ccc(C#N)c(C(F)(F)F)c3)n2)cc1 | 0.3 |  |
| N#Cc1ccc(C(=O)NCCCc2ccn(-c3ccc(C#N)c(C(F)(F)F)c3)n2)cc1 | > 25 |  |
| N#Cc1ccc(C(=O)NCCc2ccn(-c3ccc(C#N)c(C(F)(F)F)c3)n2)cc1 | > 25 |  |
| N#Cc1ccc(-n2ccc(CCNC(=O)c3ccc([N+](=O)[O-])cc3)n2)cc1C(F)(F)F | > 25 |  |
| CNC(=O)c1ccc(N2C(=S)N(c3ccc(C#N)c(C(F)(F)F)c3)C(=O)C2(C)C)cc1F [ENZALUTAMIDE] |  | IC50 [2]: 64.7 µM; IC50 [3]: 0.13 µM; IC50 [4]: 26.3 µM; IC50 [5]: 0.48 µM; IC50 [6]: 96.9 µM |
| Cc1cn(-c2ccc(C#N)c(C(F)(F)F)c2)nc1CNC(=O)c1ccc([N+](=O)[O-])cc1 | 0.45 |  |
| CC(C)(O)c1ccc(C(=O)NCc2ccn(-c3ccc(C#N)c(C(F)(F)F)c3)n2)cc1 | > 25 |  |
| N#Cc1ccc(-n2ccc(CC(=O)Nc3ccc(F)nc3)n2)cc1C(F)(F)F | 0.14 | IC50 [7]: 1.12 µM; Activity [8]: Active; IC50 [9]: 1.31 µM; IC50 [10]: 1.31 µM; IC50 [2]: > 1000 µM; Kd [11]: 8.99 µM; IC50 [12]: 0.31 µM; IC50 [3]: 16.3 µM; IC50 [13]: 1.12 µM; IC50 [4]: 8.84 µM; IC50 [5]: 1.75 µM; IC50 [6]: > 1000 µM |
| N#Cc1ccc(-n2ccc(CC(=O)Nc3ccc(F)cn3)n2)cc1C(F)(F)F | 0.34 |  |
| COc1ccc(NC(=O)Cc2ccn(-c3ccc(C#N)c(C(F)(F)F)c3)n2)cc1 | 9.2 |  |
| CC(O)c1cc(C(=O)NCc2ccn(-c3ccc(C#N)c(C(F)(F)F)c3)n2)n[nH]1 (stereo not given) | > 25 |  |
| N#Cc1ccc(-n2ccc(CC(=O)Nc3ccncc3)n2)cc1C(F)(F)F | > 25 |  |
| N#Cc1ccc(-n2ccc(CCNC(=O)c3ccc(F)cc3)n2)cc1C(F)(F)F | > 25 |  |
| N#Cc1ccc(-n2ccc(C(=O)Nc3ccc(F)nc3)n2)cc1C(F)(F)F | > 25 |  |
| N#Cc1ccc(-n2ccc(C(=O)Nc3ccc(F)cn3)n2)cc1C(F)(F)F | > 25 |  |
| N#Cc1ccc(-n2ccc(CC(=O)Nc3ccc([N+](=O)[O-])cc3)n2)cc1C(F)(F)F | 0.08 |  |
| O=C(Cc1ccn(-c2ccc([N+](=O)[O-])c(C(F)(F)F)c2)n1)Nc1ccc(F)cc1 | 0.34 |  |

From ChEMBL document CHEMBL5104187, “Discovery of 2-(1-(3-Chloro-4-cyanophenyl)-1H-pyrazol-3-yl)acetamides as Potent, Selective, and Orally Available Antagonists Targeting the Androgen Receptor” (J Med Chem, 2022)
